Data as given in patent US11072588B2, “Barbituric acid derivatives comprising cationic and lipophilic groups” (UNIVERSITETET I TROMSØ—NORGES ARKTISKE UNIVERSITET, priority 2017, dated 2021).
Values after ≈ are worked out from the molar mass of the structure shown. Like-named read-outs stand apart in the source and are kept apart here.

What was measured:
E. coli 50857972 = assay: MIC, multi-resistant clinical isolate; format: cell-based, Escherichia coli; settings: for MIC: Escherichia coli, read-out: Antimicrobial activity (MIC); for selectivity index (EC50/MIC): RBC EC50 / MIC
E. coli 50579417 = assay: MIC, multi-resistant clinical isolate; format: cell-based, Escherichia coli; settings: for MIC: Escherichia coli, read-out: Antimicrobial activity (MIC); for selectivity index (EC50/MIC): RBC EC50 / MIC
E. coli 50639799 = assay: MIC, multi-resistant clinical isolate; format: cell-based, Escherichia coli; settings: for MIC: Escherichia coli, read-out: Antimicrobial activity (MIC); for selectivity index (EC50/MIC): RBC EC50 / MIC
E. faecium TUH50-22 = assay: MIC, multi-resistant clinical isolate; format: cell-based, Enterococcus faecium; settings: for MIC: Enterococcus faecium, TUH5022, read-out: Antimicrobial activity (MIC); for selectivity index (EC50/MIC): RBC EC50 / MIC
Procedure: (§1) Working solutions of the test derivatives were prepared with up to 100% DMSO and stored at −20° C. If necessary, the solutions were heated to 40-80° C. before testing to facilitate complete dissolution. Double-distilled water was used in all dilutions prepared. […] A microdilution susceptibility test was used for MIC determination according to Clinical and Laboratory Standards Institute, “Methods for Dilution Antimicrobial Sisceptibility Tests for Bacteria That Graw Aerobically”, Approved Standard M07-A9, edition 2012, with modifications as described by Igumnova et al (Bioorg Med Chem, 2016, 24 (22), 5884-5894).
(§2) Briefly, the bacterial inoculum was adjusted to approximately 2.5-3×10^4 cells/mL in Mueller-Hinton broth (MHB, Difco Laboratories, USA), and incubated in a ratio of 1:1 with test derivatives in polystyrene 96-well flat-bottom microplates (NUNC, Roskilde, Denmark). Positive growth control (without test derivatives) and negative control (without bacteria) were included. The reference antibiotic was oxytetracycline hydrochloride (Sigma Aldrich, Saint Louis, Mo., USA). The microplates were incubated in an EnVision microplate reader (Perkin-Elmer, Turku, Finland) placed in an incubator set to 35° C. for 48 h. The MIC value was defined as the lowest concentration of derivative resulting in no bacterial growth as determined by OD600 measurement. All derivatives were tested in three parallels.
(§3) The MIC was determined as explained above with some exceptions; working solutions of test derivatives were prepared from concentrated DMSO stocks stored at room temperature, the density of the bacterial inoculum was increased 40× to 1-1.2×10^6 cells/mL, enterococci were incubated in Brain Heart Infusion broth (BHIB, Difco Laboratories, USA), the microplates were incubated for 24 h, and the derivatives were tested in four parallels.

E. faecium 50673722 = assay: MIC, multi-resistant clinical isolate; format: cell-based, Enterococcus faecium; settings: for MIC: Enterococcus faecium, read-out: Antimicrobial activity (MIC); for selectivity index (EC50/MIC): RBC EC50 / MIC
Procedure: as §1, §2, §3

E. faecium 50758899 = assay: MIC, multi-resistant clinical isolate; format: cell-based, Enterococcus faecium; settings: for MIC: Enterococcus faecium, read-out: Antimicrobial activity (MIC); for selectivity index (EC50/MIC): RBC EC50 / MIC
Procedure: as §1, §2, §3

E. faecium K36-18 = assay: MIC, multi-resistant clinical isolate; format: cell-based, Enterococcus faecium; settings: for MIC: Enterococcus faecium, K3618, read-out: Antimicrobial activity (MIC); for selectivity index (EC50/MIC): RBC EC50 / MIC, E. faecium K36-18
Procedure: as §1, §2, §3

E. faecium 50901530 = assay: MIC, multi-resistant clinical isolate; format: cell-based, Enterococcus faecium; settings: for MIC: Enterococcus faecium, read-out: Antimicrobial activity (MIC); for selectivity index (EC50/MIC): RBC EC50 / MIC
Procedure: as §1, §2, §3

[1] = Determination of haemolytic activity; format: cell-based; settings: human red blood cells (washed, from heparinized fresh blood); human RBCs, 1 h, 37° C.; read-out: RBC: haemolytic activity against human RBCs (EC50)
Procedure: Hemolysis was determined using a heparinized fraction (1000 IU/mL) of freshly drawn blood. Blood collected in EDTA containing test tubes (Vacutest®, KIMA, Arzergrande, Italy) was used for determination of the hematocrit (hct). The heparinized blood was washed 3× with pre-warmed PBS and adjusted to a final hct of 4%. Derivatives in DMSO (50 mM) were added to a 96-well polypropylene V-bottom plate (NUNC, Fisher Scientific, Oslo, Norway) and serially diluted. The test concentration range was 500-4 μM with DMSO contents ≤1%. A solution of 1% triton X-100 was used as positive control for 100% hemolysis. As negative control a solution of 1% DMSO in PBS buffer was included. No signs of DMSO toxicity were detected. RBCs (1% v/v final concentration) were added to the well plate and incubated at 37° C. and 800 rpm for 1 h. After centrifugation (5 min, 3000 g), 100 μL of each well were transferred to a 96-well flat bottom plate and absorbance was measured at 545 nm with a microplate reader (VersaMax™, Molecular Devices, Sunnyvale, Calif., USA). The percentage of hemolysis was calculated as the ratio of the absorbance in the derivative-treated and surfactant treated samples, corrected for the PBS background. Three independent experiments were performed and EC50 values are presented as averages.

[2] = system: Escherichia coli ATCC 25922; assay: MIC assay, antibiotic susceptible reference strain; format: cell-based; settings: Escherichia coli, ATCC25922, read-out: Antimicrobial activity (MIC) E. c
Procedure: as §1, §2

[3] = system: Pseudomonas aeruginosa PA01, DSM 19880 (ATCC 15692); assay: MIC assay, antibiotic susceptible reference strain; format: cell-based; settings: Pseudomonas aeruginosa, read-out: Antimicrobial activity (MIC) P. a
Procedure: as §1, §2

[4] = system: Staphylococcus aureus ATCC 9144; assay: MIC assay, antibiotic susceptible reference strain; format: cell-based; settings: Staphylococcus aureus, ATCC9144, read-out: Antimicrobial activity (MIC) S. a
Procedure: as §1, §2

[5] = system: Corynebacterium glutamicum ATCC 13032; assay: MIC assay, antibiotic susceptible reference strain; format: cell-based; settings: Corynebacterium glutamicum, ATCC13032, read-out: Antimicrobial activity (MIC) C. g
Procedure: as §1, §2

S. epidermidis = assay: Anti-biofilm activity (inhibition of biofilm formation); format: cell-based; settings: Staphylococcus epidermidis, read-out: Anti-biofilm IC50
K. pneumoniae 50625602 = assay: MIC, multi-resistant clinical isolate; format: cell-based, Klebsiella pneumoniae; settings: for MIC: Klebsiella pneumoniae, read-out: Antimicrobial activity (MIC); for selectivity index (EC50/MIC): RBC EC50 / MIC
Procedure: as §1, §2, §3

K. pneumoniae K47-25 = assay: MIC, multi-resistant clinical isolate; format: cell-based, Klebsiella pneumoniae; settings: for MIC: Klebsiella pneumoniae, K4725, 24 h, read-out: Antimicrobial activity (MIC)
Procedure: as §1, §2, §3

K. pneumoniae 50531633 = assay: MIC, multi-resistant clinical isolate; format: cell-based, Klebsiella pneumoniae; settings: K. pneumoniae 50531633, resistant to colistin; for MIC: Klebsiella pneumoniae, 24 h, read-out: Antimicrobial activity (MIC); for selectivity index (EC50/MIC): RBC EC50 / MIC
Procedure: as §1, §2, §3

Row | SMILES | MIC (E. coli 50857972) [µg/mL] | selectivity index (EC50/MIC) (E. coli 50857972) | MIC (E. coli 50579417) [µg/mL] | selectivity index (EC50/MIC) (E. coli 50579417) | MIC (E. coli 50639799) [µg/mL] | selectivity index (EC50/MIC) (E. coli 50639799) | MIC (E. faecium TUH50-22) [µg/mL] | selectivity index (EC50/MIC) (E. faecium TUH50-22) | MIC (E. faecium 50673722) [µg/mL] | selectivity index (EC50/MIC) (E. faecium 50673722) | MIC (E. faecium 50758899) [µg/mL] | selectivity index (EC50/MIC) (E. faecium 50758899) | MIC (E. faecium K36-18) [µg/mL] | selectivity index (EC50/MIC) (E. faecium K36-18) | MIC (E. faecium 50901530) [µg/mL] | selectivity index (EC50/MIC) (E. faecium 50901530) | EC50 at 1 h [1] [µg/mL] | MIC [2] [µg/mL] | MIC [3] [µg/mL] | MIC [4] [µg/mL] | other results
1 | NCCCCN1C(=O)N(CCCCN)C(=O)C(Cc2ccc(F)c3ccccc23)(Cc2ccc(F)c3ccccc23)C1=O [7(v), 1,3-bis(4-aminobutyl)-5,5-bis((4-fluoronaphtalen-1-yl)methyl)pyrimidin-2,4,6(1H,3H,5H)-trione] | 16 (≈ 27.3 µM) | (10) | 16 (≈ 27.3 µM) | (10) | 16 (≈ 27.3 µM) | (10) | 4 (≈ 6.82 µM) | (40) | 8 (≈ 13.6 µM) | (20) | 8 (≈ 13.6 µM) | (20) | 8 (≈ 13.6 µM) | (20) | 4 (≈ 6.82 µM) | (40) | 160 (≈ 273 µM) | 16 (≈ 27.3 µM) | 8 (≈ 13.6 µM) | 4 (≈ 6.82 µM) | MIC [5]: 1 µg/mL (≈ 1.7 µM); IC50 (S. epidermidis): 4 µg/mL (≈ 6.82 µM); MIC (K. pneumoniae 50625602): 32 µg/mL (≈ 54.5 µM); selectivity index (EC50/MIC) (K. pneumoniae 50625602): (5); MIC (K. pneumoniae K47-25): > 32 µg/mL; MIC (K. pneumoniae 50531633): 16 µg/mL (≈ 27.3 µM); selectivity index (EC50/MIC) (K. pneumoniae 50531633): (10)
2 | NCCCCN1C(=O)N(CCCCN)C(=O)C(Cc2cc(C(F)(F)F)cc(C(F)(F)F)c2)(Cc2cc(C(F)(F)F)cc(C(F)(F)F)c2)C1=O [7(vi)] | 8 (≈ 11.1 µM) | (23) | 16 (≈ 22.1 µM) | (11) | 16 (≈ 22.1 µM) | (11) | 8 (≈ 11.1 µM) | (23) | 8 (≈ 11.1 µM) | (23) | 16 (≈ 22.1 µM) | (11) | 16 (≈ 22.1 µM) | (11) | 8 (≈ 11.1 µM) | (23) | 183 (≈ 253 µM) | 8 (≈ 11.1 µM) | 8 (≈ 11.1 µM) | 8 (≈ 11.1 µM) | MIC [5]: 1 µg/mL (≈ 1.38 µM); MIC (K. pneumoniae 50625602): 32 µg/mL (≈ 44.3 µM); selectivity index (EC50/MIC) (K. pneumoniae 50625602): (6); MIC (K. pneumoniae K47-25): > 32 µg/mL; MIC (K. pneumoniae 50531633): 32 µg/mL (≈ 44.3 µM); selectivity index (EC50/MIC) (K. pneumoniae 50531633): (6)
3 | N=C(N)NCCCCN1C(=O)N(CCCCNC(=N)N)C(=O)C(Cc2ccc3ccccc3c2)(Cc2ccc3ccccc3c2)C1=O [8(iv), 1,1′-(4,4′-(5,5-bis(naphthalen-2-ylmethyl)-2,4,6-trioxodihydropyrimidine-1,3(2H,4H)-diyl)bis(butane-4,1-diyl))-diguanidine] | 8 (≈ 12.6 µM) | (17) | 16 (≈ 25.2 µM) | (8) | 8 (≈ 12.6 µM) | (17) | 8 (≈ 12.6 µM) | (17) | 16 (≈ 25.2 µM) | (8) | 16 (≈ 25.2 µM) | (8) | 16 (≈ 25.2 µM) | (8) | 8 (≈ 12.6 µM) | (17) | 133 (≈ 210 µM) | 1 (≈ 1.58 µM) | 8 (≈ 12.6 µM) | 1 (≈ 1.58 µM) | MIC [5]: 0.25 µg/mL (≈ 0.394 µM); IC50 (S. epidermidis): 1 µg/mL (≈ 1.58 µM); MIC (K. pneumoniae 50625602): 16 µg/mL (≈ 25.2 µM); selectivity index (EC50/MIC) (K. pneumoniae 50625602): (8); MIC (K. pneumoniae K47-25; K. pneumoniae K47-25, resistant to colistin): 16 µg/mL (≈ 25.2 µM); selectivity index (EC50/MIC) (K. pneumoniae K47-25; RBC EC50 / MIC, K. pneumoniae K47-25, resistant to colistin): (8); MIC (K. pneumoniae 50531633): 16 µg/mL (≈ 25.2 µM); selectivity index (EC50/MIC) (K. pneumoniae 50531633): (8)
